Measurements published in patent US9421209B2, “Kinase modulators” (Rhizen Pharmaceuticals SA, priority 2009, dated 2016).
Read-outs that look alike come from different tables or passages of the source.

What was measured:
P110α = P110α (Homo sapiens, UniProt P42336); assay: Fluorescent (HTRF) determination of PI3K enzyme activity, α isoform; assay type: biochemical
Source text: (§1) Assay 1: Fluorescent determination of PI3Kinase Kinase enzyme activity
(§2) Phosphoinositide 3 kinases (PI3K) belong to a class of lipid kinases that play a critical role in the regulation of several key cellular processes. The PI3K are capable of phosphorylating the 3-hydroxy position of phosphoinositols thereby generating second messengers involved in downstream signalling events. The homogenous time resolved fluorescence (HTRF) assay allows detection of 3,4,5-triphosphate (PIP3) formed as a result of phosphorylation of phosphotidylinositol 4,5-biphosphate (PIP2) by PI3K isoforms such as α, β, γ or δ.
(§3) PI3K isoform activity for α, β, γ or δ was determined using a PI3K human HTRF™ Assay Kit (Millipore, Billerica, Mass.) with modifications. All incubations were carried out at room temperature. Briefly, 0.5 μl of 40× inhibitor (in 100% DMSO) or 100% DMSO were added to each well of a 384-well black plate (Greiner Bio-One, Monroe, N.C.) containing 14.5 μl 1× reaction buffer/PIP2 (10 mM MgCl2, 5 mM DTT, 1.38 μM PIP2) mix with or without enzyme and incubated for 10 min. After the initial incubation, 5 μl/well of 400 μM ATP was added and incubated for an additional 30 minutes. Reaction was terminated by adding 5 μl/well stop solution (Millipore, Billerica, Mass.). Five microliters of detection mix (Millipore, Billerica, Mass.) were then added to each well and was incubated for 6-18 h in the dark. HRTF ratio was measured on a microplate reader (BMG Labtech., Germany) at an excitation wavelength of 337 nm and emission wavelengths of 665 and 620 nm with an integration time of […]. Data were analyzed using Graphpad Prism (Graphpad software; San Diego Calif.) for IC50 determination. Percent inhibition was calculated based on the values for the blank and enzyme controls. The results are provided below in Table 2 & 3.

P110β = P110β (Homo sapiens, UniProt P42338); assay: Fluorescent (HTRF) determination of PI3K enzyme activity, β isoform; assay type: biochemical
Chain of P110β (P42338 whole entry, canonical isoform): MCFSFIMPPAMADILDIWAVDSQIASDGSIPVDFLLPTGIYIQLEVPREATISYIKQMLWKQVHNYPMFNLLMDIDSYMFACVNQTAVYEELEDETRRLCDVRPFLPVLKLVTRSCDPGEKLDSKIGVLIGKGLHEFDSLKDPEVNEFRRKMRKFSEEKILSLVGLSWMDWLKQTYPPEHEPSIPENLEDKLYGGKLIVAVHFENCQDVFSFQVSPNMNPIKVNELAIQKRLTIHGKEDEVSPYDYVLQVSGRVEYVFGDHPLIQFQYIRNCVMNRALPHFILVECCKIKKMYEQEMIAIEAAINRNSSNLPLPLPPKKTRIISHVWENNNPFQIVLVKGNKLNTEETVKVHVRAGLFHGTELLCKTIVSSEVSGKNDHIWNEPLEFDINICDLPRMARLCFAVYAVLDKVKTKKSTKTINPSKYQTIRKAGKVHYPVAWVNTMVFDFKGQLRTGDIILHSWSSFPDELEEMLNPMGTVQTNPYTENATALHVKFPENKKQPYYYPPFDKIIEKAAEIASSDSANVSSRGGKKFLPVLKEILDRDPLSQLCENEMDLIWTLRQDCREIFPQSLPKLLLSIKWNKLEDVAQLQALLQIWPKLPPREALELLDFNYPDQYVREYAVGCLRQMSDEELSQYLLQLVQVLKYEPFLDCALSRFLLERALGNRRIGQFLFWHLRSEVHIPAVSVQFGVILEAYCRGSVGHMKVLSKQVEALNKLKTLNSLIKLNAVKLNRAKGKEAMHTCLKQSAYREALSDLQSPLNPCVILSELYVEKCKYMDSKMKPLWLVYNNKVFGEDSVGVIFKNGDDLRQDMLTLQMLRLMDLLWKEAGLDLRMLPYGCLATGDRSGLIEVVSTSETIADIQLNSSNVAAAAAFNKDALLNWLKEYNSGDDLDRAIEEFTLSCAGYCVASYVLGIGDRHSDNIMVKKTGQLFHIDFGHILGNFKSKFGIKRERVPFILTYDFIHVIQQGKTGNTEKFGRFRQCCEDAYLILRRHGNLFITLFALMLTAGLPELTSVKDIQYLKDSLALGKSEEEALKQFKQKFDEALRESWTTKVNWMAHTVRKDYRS
Chain of P110β (P27986 whole entry partner, canonical isoform): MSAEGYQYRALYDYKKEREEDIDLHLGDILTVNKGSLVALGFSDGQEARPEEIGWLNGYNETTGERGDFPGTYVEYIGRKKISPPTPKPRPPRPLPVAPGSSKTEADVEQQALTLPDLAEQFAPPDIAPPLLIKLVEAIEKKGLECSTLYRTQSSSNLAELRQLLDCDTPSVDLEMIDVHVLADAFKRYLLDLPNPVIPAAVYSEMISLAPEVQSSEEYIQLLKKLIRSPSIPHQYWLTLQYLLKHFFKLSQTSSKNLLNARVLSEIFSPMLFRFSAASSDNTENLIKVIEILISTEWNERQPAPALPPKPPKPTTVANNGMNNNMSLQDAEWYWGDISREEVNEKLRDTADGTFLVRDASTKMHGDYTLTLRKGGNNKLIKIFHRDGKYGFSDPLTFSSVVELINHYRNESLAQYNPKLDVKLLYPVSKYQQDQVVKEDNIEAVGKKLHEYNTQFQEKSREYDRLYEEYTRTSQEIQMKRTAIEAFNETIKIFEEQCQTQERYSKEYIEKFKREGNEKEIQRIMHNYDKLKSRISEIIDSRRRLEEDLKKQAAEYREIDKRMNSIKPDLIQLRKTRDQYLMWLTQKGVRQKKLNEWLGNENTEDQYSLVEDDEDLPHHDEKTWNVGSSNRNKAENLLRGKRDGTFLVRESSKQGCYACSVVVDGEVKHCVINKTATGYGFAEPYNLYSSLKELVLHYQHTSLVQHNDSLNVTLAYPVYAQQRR
Source text: as §1, §2, §3

P110 δ/Pi3K δ = P110 δ/Pi3K δ (Homo sapiens, UniProt O00329); assay: Fluorescent (HTRF) determination of PI3K enzyme activity, δ isoform; assay type: biochemical; set-up: inhibition: dose or concentration left out as unconfirmed
Chain of P110 δ/Pi3K δ (O00329 whole entry, canonical isoform): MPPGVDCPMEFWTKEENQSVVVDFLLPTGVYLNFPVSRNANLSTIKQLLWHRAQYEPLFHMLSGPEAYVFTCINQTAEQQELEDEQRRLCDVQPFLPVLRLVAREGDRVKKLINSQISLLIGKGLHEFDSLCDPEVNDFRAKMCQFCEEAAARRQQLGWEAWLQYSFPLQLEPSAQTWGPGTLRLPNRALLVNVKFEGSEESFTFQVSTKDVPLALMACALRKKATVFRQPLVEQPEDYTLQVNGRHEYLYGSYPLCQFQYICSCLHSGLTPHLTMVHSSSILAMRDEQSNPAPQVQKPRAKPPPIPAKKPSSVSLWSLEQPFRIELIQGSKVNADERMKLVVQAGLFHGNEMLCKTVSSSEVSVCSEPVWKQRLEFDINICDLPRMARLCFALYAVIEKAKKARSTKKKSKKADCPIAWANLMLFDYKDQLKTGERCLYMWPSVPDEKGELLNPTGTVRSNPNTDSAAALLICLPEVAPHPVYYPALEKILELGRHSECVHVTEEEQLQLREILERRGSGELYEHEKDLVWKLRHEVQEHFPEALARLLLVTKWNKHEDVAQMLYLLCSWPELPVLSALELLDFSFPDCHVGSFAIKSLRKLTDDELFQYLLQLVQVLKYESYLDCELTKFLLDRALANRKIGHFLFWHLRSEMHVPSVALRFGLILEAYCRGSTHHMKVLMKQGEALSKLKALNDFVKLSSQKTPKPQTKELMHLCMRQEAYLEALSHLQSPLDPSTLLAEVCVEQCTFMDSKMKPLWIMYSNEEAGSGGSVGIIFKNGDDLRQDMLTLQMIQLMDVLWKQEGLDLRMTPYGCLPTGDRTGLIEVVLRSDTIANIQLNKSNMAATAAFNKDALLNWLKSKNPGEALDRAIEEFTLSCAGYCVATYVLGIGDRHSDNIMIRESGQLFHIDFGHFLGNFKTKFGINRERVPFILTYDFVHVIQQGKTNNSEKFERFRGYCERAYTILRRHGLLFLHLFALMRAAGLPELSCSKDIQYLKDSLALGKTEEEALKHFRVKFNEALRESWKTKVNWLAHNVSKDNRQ
Chain of P110 δ/Pi3K δ (P27986 whole entry partner, canonical isoform): as the sequence (P27986 whole entry partner, canonical isoform) above
Method in brief: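 IC50 fitted from percent inhibition relative to blank and enzyme-only wells. Human PI3Kδ converts PIP2 to PIP3 after addition of 400 μM ATP solution, 30 min at room temperature. Product read by time-resolved FRET after stop and 6–18 h dark incubation with detection reagents.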

[1] = read-out: P110 δ/Pi3K δ IC 50 nM

Chain of P110α (P42336 whole entry, canonical isoform): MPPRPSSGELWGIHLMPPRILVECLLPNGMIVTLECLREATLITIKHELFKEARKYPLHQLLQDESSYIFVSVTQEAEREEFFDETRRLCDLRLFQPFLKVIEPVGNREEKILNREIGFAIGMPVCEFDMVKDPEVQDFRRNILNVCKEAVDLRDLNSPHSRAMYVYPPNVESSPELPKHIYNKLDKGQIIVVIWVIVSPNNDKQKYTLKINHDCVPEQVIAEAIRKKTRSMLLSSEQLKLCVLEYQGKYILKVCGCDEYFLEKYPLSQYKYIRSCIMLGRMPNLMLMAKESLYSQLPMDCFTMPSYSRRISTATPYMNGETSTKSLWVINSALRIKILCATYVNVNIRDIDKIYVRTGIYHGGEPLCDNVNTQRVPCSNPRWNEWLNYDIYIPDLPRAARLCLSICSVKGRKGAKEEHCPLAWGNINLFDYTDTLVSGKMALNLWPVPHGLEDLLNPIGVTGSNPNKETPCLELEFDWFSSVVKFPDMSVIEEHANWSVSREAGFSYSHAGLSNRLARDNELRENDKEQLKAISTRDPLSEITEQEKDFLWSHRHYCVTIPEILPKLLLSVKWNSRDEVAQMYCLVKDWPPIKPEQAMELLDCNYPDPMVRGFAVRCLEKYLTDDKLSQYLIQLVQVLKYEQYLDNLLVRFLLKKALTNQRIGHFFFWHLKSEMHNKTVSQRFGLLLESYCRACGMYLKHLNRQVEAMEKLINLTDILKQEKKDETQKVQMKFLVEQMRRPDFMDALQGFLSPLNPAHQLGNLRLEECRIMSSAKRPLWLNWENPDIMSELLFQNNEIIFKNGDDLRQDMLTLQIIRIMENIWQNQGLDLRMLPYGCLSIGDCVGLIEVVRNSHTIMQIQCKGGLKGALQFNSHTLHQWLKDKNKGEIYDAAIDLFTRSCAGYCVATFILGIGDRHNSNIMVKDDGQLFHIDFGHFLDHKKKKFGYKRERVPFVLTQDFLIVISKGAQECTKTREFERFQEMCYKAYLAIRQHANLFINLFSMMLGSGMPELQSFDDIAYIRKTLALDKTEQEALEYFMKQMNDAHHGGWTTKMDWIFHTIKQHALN
Chain of P110α (P27986 whole entry partner, canonical isoform): as the sequence (P27986 whole entry partner, canonical isoform) above

inhibition at 1 µM (P110α) [%] | inhibition at 1 µM (P110β) [%] | inhibition (P110 δ/Pi3K δ) [%] | melting point [°C] | inhibition at 1 µM (P110 δ/Pi3K δ) [%] | IC50 (P110 δ/Pi3K δ; [1]) [nM] | IC50 (P110 δ/Pi3K δ; read-out: P110 δ/ Pi3K δ IC 50 nM) [nM] | SMILES
< 25 | < 25 | < 50 | 224 to 227 |  |  |  | COc1cc(OC)cc(-c2nn(C(C)c3oc4ccccc4c(=O)c3-c3cccc(F)c3)c3ncnc(N)c23)c1 (centres unmarked) [Example 130, 2-(1-(4-amino-3-(3,5-dimethoxyphenyl)-1H-pyrazolo[3,4-d]pyrimidin-1-yl)ethyl)-3-(3-fluorophenyl)-4H-chromen-4-one]
< 25 | 50 to 100 | < 50 | 225 to 226 |  |  |  | CC(c1oc2ccccc2c(=O)c1-c1cccc(F)c1)n1nc(-c2ccc3c(c2)OCCO3)c2c(N)ncnc21 (centres unmarked) [Example 133, 2-(1-(4-amino-3-(2,3-dihydrobenzo[b][1,4]dioxin-6-yl)-1H-pyrazolo[3,4-d]pyrimidin-1-yl)ethyl)-3-(3-fluorophenyl)-4H-chromen-4-one]
25 to 50 | < 25 | < 50 | 234 to 236 |  |  |  | COc1c(C)cc(-c2nn(C(C)c3oc4ccccc4c(=O)c3-c3cccc(F)c3)c3ncnc(N)c23)cc1C (centres unmarked) [Example 131, 2-(1-(4-amino-3-(4-methoxy-3,5-dimethylphenyl)-1H-pyrazolo[3,4-d]pyrimidin-1-yl)ethyl)-3-(3-fluorophenyl)-4H-chromen-4-one]
< 25 | < 25 | < 50 | 194 to 197 |  |  |  | C[C@@H](Nc1ncnc2[nH]cnc12)c1oc2ccc(F)cc2c(=O)c1-c1cccc(F)c1 [Example 124, (R)-2-(1-(9H-purin-6-ylamino)ethyl)-6-fluoro-3-(3-fluorophenyl)-4H-chromen-4-one]
< 25 | < 25 | 50 to 100 | 268 to 270 |  |  |  | CCC(c1oc2ccccc2c(=O)c1-c1cccc(F)c1)n1nc(-c2ccc3c(C)n[nH]c3c2)c2c(N)ncnc21 (centres unmarked) [Example 116, 2-(1-(4-amino-3-(3-methyl-1H-indazol-6-yl)-1H-pyrazolo[3,4-d]pyrimidin-1-yl)propyl)-3-(3-fluorophenyl)-4H-chromen-4-one]
< 25 | < 25 |  | 234 to 236 |  |  |  | O=c1c(-c2ccccc2)c(Cn2cnc3c(Cl)ncnc32)oc2ccc(Br)cc12 [Example 10, 6-Bromo-2-[(6-chloro-9H-purin-9-yl)methyl]-3-phenyl-4H-chromen-4-one]
< 25 | < 25 |  |  |  |  |  | COc1cc(F)cc(-c2nn(Cc3oc4ccc(F)cc4c(=O)c3-c3cccc(F)c3)c3ncnc(N)c23)c1 [Example 120, 2-((4-amino-3-(3-fluoro-5-methoxyphenyl)-1H-pyrazolo[3,4-d]pyrimidin-1-yl)methyl)-6-fluoro-3-(3-fluorophenyl)-4H-chromen-4-one]
< 25 | < 25 |  | 207 to 209 | < 50 | < 250 |  | Nc1ncnc2c1ncn2Cc1oc2ccc(Br)cc2c(=O)c1-c1ccccc1 [Example 1, 2-[(6-Amino-9H-purin-9-yl)methyl]-6-bromo-3-phenyl-4H-chromen-4-one]
< 25 | < 25 | 50 to 100 | 154 to 156 |  |  | < 250 | Cc1nc2cc(-c3nn(C(C)c4oc5ccccc5c(=O)c4-c4cccc(F)c4)c4ncnc(N)c34)ccc2[nH]1 (centres unmarked) [Example 115, 2-(1-(4-amino-3-(2-methyl-1H-benzo[d]imidazol-5-yl)-1H-pyrazolo[3,4-d]pyrimidin-1-yl)ethyl)-3-(3-fluorophenyl)-4H-chromen-4-one]
 | < 25 | < 50 | 183 to 186 |  |  |  | O=c1c(-c2ccccc2)c(CNc2ncnc3[nH]cnc23)oc2ccc(F)cc12 [Example 123, 2-((9H-purin-6-ylamino)methyl)-6-fluoro-3-phenyl-4H-chromen-4-one]
 | 25 to 50 | < 50 | 162 to 165 |  |  |  | CCOc1cccc(-c2nn(C(C)c3oc4ccccc4c(=O)c3-c3cccc(F)c3)c3ncnc(N)c23)c1 (centres unmarked) [Example 150, 2-(1-(4-amino-3-(3-ethoxyphenyl)-1H-pyrazolo[3,4-d]pyrimidin-1-yl)ethyl)-3-(3-fluorophenyl)-4H-chromen-4-one]
 | 50 to 100 | < 50 | 229 to 232 |  |  |  | O=c1c(-c2cccc(F)c2)c(CNc2ncnc3[nH]cnc23)oc2ccc(F)cc12 [Example 122, 2-((9H-purin-6-ylamino)methyl)-6-fluoro-3-(3-fluorophenyl)-4H-chromen-4-one]
25 to 50 | 25 to 50 | 50 to 100 | 244 to 247 |  |  |  | CC(c1oc2ccccc2c(=O)c1-c1cccc(F)c1)n1nc(-c2ccc(O)c(F)c2)c2c(N)ncnc21 (centres unmarked) [Example 85, 2-(1-(4-amino-3-(3-fluoro-4-hydroxyphenyl)-1H-pyrazolo[3,4-d]pyrimidin-1-yl)ethyl)-3-(3-fluorophenyl)-4H-chromen-4-one]
 | 25 to 50 | < 50 | 269 to 271 |  |  |  | CC(c1oc2ccccc2c(=O)c1-c1cccc(F)c1)n1nc(-c2ccc(N3CCOCC3)nc2)c2c(N)ncnc21 (centres unmarked) [Example 137, 2-(1-(4-amino-3-(6-morpholinopyridin-3-yl)-1H-pyrazolo[3,4-d]pyrimidin-1-yl)ethyl)-3-(3-fluorophenyl)-4H-chromen-4-one]
< 25 | 25 to 50 | < 50 | 207 to 209 |  |  |  | Nc1ncnc2c1ncn2Cc1oc2ccc(F)cc2c(=O)c1-c1ccccc1 [Example 118, 2-((6-amino-9H-purin-9-yl)methyl)-6-fluoro-3-phenyl-4H-chromen-4-one]
 | < 25 | 50 to 100 | 192 to 195 |  |  |  | CC(c1oc2ccccc2c(=O)c1-c1cccc(F)c1)n1nc(-c2csc(C=O)c2)c2c(N)ncnc21 (centres unmarked) [Example 113, 4-(4-amino-1-(1-(3-(3-fluorophenyl)-4-oxo-4H-chromen-2-yl)ethyl)-1H-pyrazolo[3,4-d]pyrimidin-3-yl)thiophene-2-carbaldehyde]
< 25 | < 25 | < 50 | 224 to 227 |  |  |  | COc1ncc(-c2nn(C(C)c3oc4ccccc4c(=O)c3-c3cccc(F)c3)c3ncnc(N)c23)cn1 (centres unmarked) [Example 112, 2-(1-(4-amino-3-(2-methoxypyrimidin-5-yl)-1H-pyrazolo[3,4-d]pyrimidin-1-yl)ethyl)-3-(3-fluorophenyl)-4H-chromen-4-one]
< 25 | 25 to 50 |  | 196 to 198 | 50 to 100 | < 250 |  | C[C@H](Nc1ncnc2[nH]cnc12)c1oc2ccc(F)cc2c(=O)c1-c1ccccc1 [Example 57, (S)-2-(1-(9H-purin-6-ylamino)ethyl)-6-fluoro-3-phenyl-4H-chromen-4-one]
< 25 | < 25 | < 50 | 211 to 214 |  |  |  | Nc1ncnc2c1c(-c1cn[nH]c1)nn2Cc1oc2ccc(F)cc2c(=O)c1-c1ccccc1 [Example 125, 2-((4-amino-3-(1H-pyrazol-4-yl)-1H-pyrazolo[3,4-d]pyrimidin-1-yl)methyl)-6-fluoro-3-phenyl-4H-chromen-4-one]
 | < 25 | 50 to 100 | 234 to 236 |  |  |  | CC(c1oc2ccccc2c(=O)c1-c1cccc(F)c1)n1nc(-c2ccco2)c2c(N)ncnc21 (centres unmarked) [Example 155, 2-(1-(4-amino-3-(furan-2-yl)-1H-pyrazolo[3,4-d]pyrimidin-1-yl)ethyl)-3-(3-fluorophenyl)-4H-chromen-4-one]
 | 25 to 50 | < 50 | 224 to 226 |  |  |  | CC(c1oc2ccccc2c(=O)c1-c1cccc(F)c1)n1nc(-c2ccc(OC(F)(F)F)cc2)c2c(N)ncnc21 (centres unmarked) [Example 145, 2-(1-(4-amino-3-(4-(trifluoromethoxy)phenyl)-1H-pyrazolo[3,4-d]pyrimidin-1-yl)ethyl)-3-(3-fluorophenyl)-4H-chromen-4-one]
 | 25 to 50 | < 50 | 140 to 142 |  |  |  | CC(c1oc2ccccc2c(=O)c1-c1cccc(F)c1)n1nc(-c2cnn(Cc3ccccc3)c2)c2c(N)ncnc21 (centres unmarked) [Example 134, 2-(1-(4-amino-3-(1-benzyl-1H-pyrazol-4-yl)-1H-pyrazolo[3,4-d]pyrimidin-1-yl)ethyl)-3-(3-fluorophenyl)-4H-chromen-4-one]
